Experiments:
human GFAT-1 [1] = target: T1, human GFAT-1 (Homo sapiens, UniProt Q06210); assay: X-ray crystal structure (co-crystallization); type: binding
T1 construct: gene GFPT1; full length isoform 2, internal His6-tag inserted between Gly299 and Asp300 (kept), initial Met removed, Sf21 baculovirus (MultiBac), Ni-NTA and SEC; phosphorylated S243 found; dimer in crystal

human GFAT-1 [2] = target: T1, human GFAT-1; assay: X-ray crystal structure (soaking); type: binding; conditions: 5 mM soak, 2 h; UDP-GlcNAc site of isomerase domain; inhibition curve in the GDH-coupled assay only in Figure 4g
human GFAT-1 [3] = target: T1, human GFAT-1; assay: GDH-coupled glutaminase (amidohydrolysis) assay, […] nm; type: biochemical; conditions: 10 mM L-Gln, 6 mM Frc6P, 1 mM APAD, 1 mM EDTA, 50 mM KCl, 100 mM potassium phosphate pH 7.5, 37 °C; feedback inhibitor bound at isomerase domain (allosteric)
human GFAT-1 [4] = target: T1, human GFAT-1; assay: X-ray crystal structure (crystallized with Frc6P); type: binding; conditions: isomerase site; linear Glc6P modelled, Frc6P not excluded at this resolution

T1 sequence (Q06210 2-681 isoform Q06210-2): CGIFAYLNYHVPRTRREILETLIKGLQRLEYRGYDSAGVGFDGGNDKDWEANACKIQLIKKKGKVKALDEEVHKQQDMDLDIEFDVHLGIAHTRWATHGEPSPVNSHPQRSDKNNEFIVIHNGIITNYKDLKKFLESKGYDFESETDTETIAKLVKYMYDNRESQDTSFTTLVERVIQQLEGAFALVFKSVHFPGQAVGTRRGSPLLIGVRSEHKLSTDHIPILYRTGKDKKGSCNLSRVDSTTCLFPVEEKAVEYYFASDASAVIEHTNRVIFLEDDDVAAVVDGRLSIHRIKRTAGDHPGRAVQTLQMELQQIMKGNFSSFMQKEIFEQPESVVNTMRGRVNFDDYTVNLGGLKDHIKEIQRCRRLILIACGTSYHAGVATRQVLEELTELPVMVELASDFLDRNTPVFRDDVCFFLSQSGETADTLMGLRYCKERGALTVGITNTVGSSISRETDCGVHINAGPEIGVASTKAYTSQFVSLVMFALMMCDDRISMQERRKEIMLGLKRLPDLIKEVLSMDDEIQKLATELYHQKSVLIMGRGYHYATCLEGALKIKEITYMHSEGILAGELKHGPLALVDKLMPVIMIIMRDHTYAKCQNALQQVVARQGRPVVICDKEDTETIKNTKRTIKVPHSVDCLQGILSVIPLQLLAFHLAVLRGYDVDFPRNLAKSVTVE

Compound: N[C@H]1C(O)O[C@H](COP(=O)(O)O)[C@@H](O)[C@@H]1O (stereo partly drawn) [D-GlcN6P]
- X-ray crystal structure (co-crystallization) (human GFAT-1 [1]; 1 mM GlcN6P, with L-Glu, linear sugar in isomerase site): The GlcN6P-bound structure formed the same asymmetric dimer as the Glc6P-bound structure

Compound: CC(=O)N[C@H]1[C@@H](OP(=O)(O)OP(=O)(O)OC[C@H]2O[C@@H](n3ccc(=O)[nH]c3=O)[C@H](O)[C@@H]2O)O[C@H](CO)[C@H](O)[C@@H]1O [UDP-GalNAc]
- X-ray crystal structure (soaking) (human GFAT-1 [2]): UDP-GalNAc was detected in the UDP-GlcNAc binding site after crystal soaking

Compound: CC(=O)N[C@H]1[C@@H](OP(=O)(O)OP(=O)(O)OC[C@H]2O[C@@H](n3ccc(=O)[nH]c3=O)[C@H](O)[C@@H]2O)O[C@H](CO)[C@@H](O)[C@@H]1O [UDP-GlcNAc]
- IC50 (human GFAT-1 [3]): 43.3 (−2.3/+2.5) µM

Compound: N[C@@H](CCC(=O)O)C(=O)O [L-Glu]
- X-ray crystal structure (co-crystallization) (human GFAT-1 [1]; 50 mM L-Glu, glutaminase site of monomer A only): The product L-Glu is bound to the glutaminase active site in one monomer (monomer A)

Compound: O=P(O)(O)OC[C@H]1OC(O)[C@H](O)[C@@H](O)[C@@H]1O (some centres unmarked) [Glc6P]
- X-ray crystal structure (crystallized with Frc6P) (human GFAT-1 [4]): we decided to model the product Glc6P in our crystal structures
